Values quoted from earlier work in patent publication US12605385B2, “Methotrexate formulation” (Therakind Ltd., priority 2014, dated 2026).
Read-outs that look alike come from different tables or passages of the source.

What was measured:
[1] = 50% v/v propylene glycol: water formulation

drug solubility on increasing the vehicle pH to 6.34 [1]: further increased
solubility at pH 5.29 compared with pH 4 [1]: significantly higher
solubility (in alkaline solution): freely soluble
solubility (in hydrochloric acid): slightly soluble
solubility (in water, alcohol, chloroform and ether): almost insoluble
Structure (SMILES): CN(Cc1cnc2nc(N)nc(N)c2n1)c1ccc(C(=O)N[C@@H](CCC(=O)O)C(=O)O)cc1 [Methotrexate, 4-amino-N^10-methylpteroylglutamic acid]
